Measured values published in patent US20210275498A1, “IMIDAZOLYL ETHANAMIDE PENTANDIOIC ACID FOR USE IN THERAPY OF SYMPTOMS RELATED TO EXPOSURE TO LETHAL RADIATION” (priority 2018, published 2021).

What was measured:
Assay type in all cases: in vivo
C57BL/6 mice [1] = test: Body weight after whole-body irradiation (response profile analysis); set-up: key to Supporting variable: Body weight (trend): positive trend (descriptively) +; negative trend (descriptively) −; no difference (descriptively) 0; conditions: for Body weight: % Difference from Baseline (g) (difference to vehicle group 2 at Day 0) / Body weight: % Difference from Vehicle: 5.8 Gy
Description: Body weights were assessed twice during acclimation (including Day −3), once prior to irradiation (Day 0), and every 3 days thereafter. Terminal body weights were also collected, with the exception of Animal 4012.
The longitudinal data were analyzed taking into account the mean weight over time in each group and the covariance among the repeated measures by response profile analysis (Fitzmaurice et al., Wiley 2004, p 103-140.). The analysis was specified as a regression model with unstructured covariance to account for the correlation among repeated body weights of the same mouse and indicator variables for treatment groups and time, where the vehicle treatment was used as the reference group and Day 0 was taken as a reference for time.
The response profile analyses provide the following regression coefficients estimated by the restricted maximum likelihood (REML) method: intercept—mean body weight in the reference groups VL (POx1);2 and VH (POx1);8 at Day 0 treatment—difference between the mean body weight in the treatment groups and the vehicle groups at Day 0 time—body weight change from baseline in the reference groups treatment×time—treatment effect at each day estimated by comparison of change from baseline in the treatment groups and control groups For all regression coefficients, p-values and 95%-confidence intervals are provided. This method provides interpretable estimates, is valid if treatment groups differ at baseline, allows for arbitrary patterns in the mean body weight over time (no specific time trend e. g. linear curve assumed) and arbitrary patterns in the covariance. The analysis has certain robustness, as potential risks due to model misspecification are minimal.

C57BL/6 mice [2] = test: Mortality / survival to Day 30 after whole-body irradiation (5.8 Gy or 6.0 Gy)
Source text: Based on a previously reported study (Williams et al. 2010, Plett et al. 2012, Chua et al. 2014, Singh et al., 2015), the mouse model was developed to investigate LD25 and LD50. The whole-body irradiation and selected dose serve as a translational in vivo model mimicking possible radiation exposure to humans following a nuclear incident.
Animals (C57BL/6 mice) were supplied by Jackson Laboratories (Bar Harbor, Me. facility). Animals were maintained at SNBL USA (Everett, Wash. facility) as stock prior to study assignment and were screened for health by veterinary staff prior to use on study. 205 animals were assigned to treatment groups.
Oral application of Myelo001 would be conducive for nuclear or other radiation incidents and was chosen for this study. […] The human equivalent dose is estimated to be 4 mg/kg based on allometric calculations.
Based on the ARS Scoring SNBL SOP, if the sum of the three parameter scores totaled 8 or higher, the animal was considered moribund and was euthanized with an unscheduled necropsy performed according to the moribund animal SOP.
Cageside mortality checks were conducted per SOP, twice daily after Day −3. Morning and afternoon checks began 2 to 3 hours after the completion of the respective ARS scorings. Individual assessments were only documented for apparently moribund animals by re-scoring, or for found dead animals by removal.
Survival data were summarized descriptively and graphically using the Kaplan-Meier method. Further, death rates were tabulated by treatment. The equality of two or more survivor curves was tested with log rank tests. In addition, Cox-regression models were used to estimate hazard ratios, p-values and 95% confidence intervals (95% CI).
The focus of the survival analysis is irradiation related death between irradiation on Day 0 and Day 30. Thus, the scheduled necropsies on Day 7 and Day 14 or deaths unrelated to radiation (Animals 2041, 9012 and 9021) were considered as censored events.

C57BL/6 mice [3] = test: Gross pathology and histopathology (testes degeneration, bone marrow cellularity) after whole-body irradiation; set-up: key to Supporting variable: Testes degradation (trend): positive trend (descriptively) +; negative trend (descriptively) −; no difference (descriptively) 0; conditions: for severity of testes degradation compared to Group 2: Day 14
Source text: (§1) FIG. 13 Testes. (A): Percentage of severity of testes degeneration according to four categories (minimal, mild, moderate and marked) in group 2 (VL (POx1); 2), group 3 (ML (IPx2); 3), group 4 (ML (POx2); 4) and group 5 (ML (POx1); 5). (B): Percentage of severity of testes degeneration according to four categories (minimal, mild, moderate and marked) in group 2 (VL (POx1);2), 6 (GL (SCx1); 6) and 7 (M/GL (PO/SCx1); 7). (C): Percentage of severity of testes degeneration according to four categories (minimal, mild, moderate and marked) in group 8 (VH (POx1); 8 and 9 (MH (POx1); 9).
as §1, with “14 Bone marrow cellularity.” for “13 Testes.”, “bone marrow cellularity decrease” for “severity of testes degeneration”

[4] = Group 9 MH (POx1): 50 mg/kg per os SID Day 1, 2, 3, therapeutic, 6.0 Gy
[5] = Group 3 ML (IPx2): 25 mg/kg IP, Day −3 to 0 (6x), prophylactic, 5.8 Gy
[6] = Group 4 ML (POx2): 25 mg/kg per os, Day −3 to 0 (6x), prophylactic, 5.8 Gy
[7] = Group 5 ML (POx1): 50 mg/kg per os SID Day −2, −1, 0, prophylactic, 5.8 Gy

For `O=C(O)CCCC(=O)NCCc1c[nH]cn1` [Myelo001, 5-{[2-(1H-imidazol-4-yl)ethyl]amino}-5-oxo-pentanoic acid], the “Body weight: % Difference from Baseline (g) (difference to vehicle group 2 at Day 0)” value (shortened to “Body weight: % Difference from Baseline”) (C57BL/6 mice [1]; Day 0, Group 3 ML (IPx2): 25 mg/kg IP, Day −3 to 0 (6x), prophylactic) was -0.8 g, the “Body weight: % Difference from Baseline” value (C57BL/6 mice [1]; Day 0, Group 4 ML (POx2): 25 mg/kg per os, Day −3 to 0 (6x), prophylactic) was -0.3 g and the “Body weight: % Difference from Baseline” value (C57BL/6 mice [1]; Day 0, Group 5 ML (POx1): 50 mg/kg per os SID Day −2, −1, 0, prophylactic) was -0.3 g. The “Body weight: Estimate (g), change relative to vehicle Group 8” value (C57BL/6 mice [1]; Day 0, Group 9 MH (POx1): 50 mg/kg per os SID Day 1, 2, 3, therapeutic, 6.0 Gy) was 0.0 g, the “Body weight: % Difference from Vehicle” value (C57BL/6 mice [1]; Day 3, Group 3 ML (IPx2): 25 mg/kg IP, Day −3 to 0 (6x), prophylactic) was 0.6 g and the “Body weight: % Difference from Vehicle” value (C57BL/6 mice [1]; Day 3, Group 4 ML (POx2): 25 mg/kg per os, Day −3 to 0 (6x), prophylactic) was 0.7 g. The “Body weight: % Difference from Vehicle” value (C57BL/6 mice [1]; Day 3, Group 5 ML (POx1): 50 mg/kg per os SID Day −2, −1, 0, prophylactic) was 0.4 g, the “Body weight: Estimate (g), change relative to vehicle Group 8” value (C57BL/6 mice [1]; Day 3, Group 9 MH (POx1): 50 mg/kg per os SID Day 1, 2, 3, therapeutic, 6.0 Gy) was 0.2 g and the “compensation of weight loss relative to vehicle Group 8 (amounts up to)” value (C57BL/6 mice [1]; Day 3 to 30, Group 9 MH (POx1): 50 mg/kg per os SID Day 1, 2, 3, therapeutic, 6.0 Gy) was “up to 3.1 g”. The “Body weight: % Difference from Vehicle” value (C57BL/6 mice [1]; Day 9, Group 3 ML (IPx2): 25 mg/kg IP, Day −3 to 0 (6x), prophylactic) was 0.5 g, the “Body weight: % Difference from Vehicle” value (C57BL/6 mice [1]; Day 9, Group 4 ML (POx2): 25 mg/kg per os, Day −3 to 0 (6x), prophylactic) was 0.6 g and the “Body weight: % Difference from Vehicle” value (C57BL/6 mice [1]; Day 9, Group 5 ML (POx1): 50 mg/kg per os SID Day −2, −1, 0, prophylactic) was 0.4 g. The “Body weight: Estimate (g), change relative to vehicle Group 8” value (C57BL/6 mice [1]; Day 9, Group 9 MH (POx1): 50 mg/kg per os SID Day 1, 2, 3, therapeutic, 6.0 Gy) was 0.4 g, the “Body weight: % Difference from Vehicle” value (C57BL/6 mice [1]; Day 15, Group 3 ML (IPx2): 25 mg/kg IP, Day −3 to 0 (6x), prophylactic) was 0.1 g and the “Body weight: % Difference from Vehicle” value (C57BL/6 mice [1]; Day 15, Group 4 ML (POx2): 25 mg/kg per os, Day −3 to 0 (6x), prophylactic) was -0.8 g. The “Body weight: % Difference from Vehicle” value (C57BL/6 mice [1]; Day 15, Group 5 ML (POx1): 50 mg/kg per os SID Day −2, −1, 0, prophylactic) was -0.4 g, the “Body weight: Estimate (g), change relative to vehicle Group 8” value (C57BL/6 mice [1]; Day 15, Group 9 MH (POx1): 50 mg/kg per os SID Day 1, 2, 3, therapeutic, 6.0 Gy) was 1.4 g and the “Body weight: % Difference from Vehicle” value (C57BL/6 mice [1]; Day 21, Group 3 ML (IPx2): 25 mg/kg IP, Day −3 to 0 (6x), prophylactic) was 1.0 g. The “Body weight: % Difference from Vehicle” value (C57BL/6 mice [1]; Day 21, Group 4 ML (POx2): 25 mg/kg per os, Day −3 to 0 (6x), prophylactic) was -0.7 g, the “Body weight: % Difference from Vehicle” value (C57BL/6 mice [1]; Day 21, Group 5 ML (POx1): 50 mg/kg per os SID Day −2, −1, 0, prophylactic) was -0.1 g and the “Body weight: Estimate (g), change relative to vehicle Group 8” value (C57BL/6 mice [1]; Day 21, Group 9 MH (POx1): 50 mg/kg per os SID Day 1, 2, 3, therapeutic, 6.0 Gy) was 3.1 g. The “Body weight: % Difference from Vehicle” value (C57BL/6 mice [1]; Day 30, Group 3 ML (IPx2): 25 mg/kg IP, Day −3 to 0 (6x), prophylactic) was 0.1 g, the “Body weight: % Difference from Vehicle” value (C57BL/6 mice [1]; Day 30, Group 4 ML (POx2): 25 mg/kg per os, Day −3 to 0 (6x), prophylactic) was -1.1 g and the “Body weight: % Difference from Vehicle” value (C57BL/6 mice [1]; Day 30, Group 5 ML (POx1): 50 mg/kg per os SID Day −2, −1, 0, prophylactic) was 0.1 g. The “Body weight: Estimate (g), change relative to vehicle Group 8” value (C57BL/6 mice [1]; Day 30, Group 9 MH (POx1): 50 mg/kg per os SID Day 1, 2, 3, therapeutic, 6.0 Gy) was 2.6 g, the “Supporting variable: Body weight (trend)” value (C57BL/6 mice [1]; [4]) was “+” and the “Dead (irradiation related deaths)” value (C57BL/6 mice [2]; [5]) was 3. The “Irradiation related death rate, Rate (per 100 Days)” value (C57BL/6 mice [2]; [5]) was 1.30 per 100 Days, the “Survival after 30 days (Kaplan-Meier estimate)” value (C57BL/6 mice [2]; [5]) was 0.54 and the “Time at Risk” value (C57BL/6 mice [2]; [5]) was 231 days. The “Time to 10% death, Time” value (C57BL/6 mice [2]; [5]) was 13 days, the “Hazard ratio (Cox regression, risk of radiation induced death)” value (shortened to “Hazard ratio”) (C57BL/6 mice [2]; Group 3 ML (IPx2): 25 mg/kg IP, Day −3 to 0 (6x), prophylactic, 5.8 Gy, reference group VL (POx1), 2) was 2.48 and the “Quantity ratio of survival probability (dose reduction factor, DRF), day 30, relative to control group” value (C57BL/6 mice [2]; Group 3 ML (IPx2): 25 mg/kg IP, Day −3 to 0 (6x), prophylactic, 5.8 Gy, vs VL (POx1), 2) was 0.7. The “Dead (irradiation related deaths)” value (C57BL/6 mice [2]; [6]) was 6, the “Irradiation related death rate, Rate (per 100 Days)” value (C57BL/6 mice [2]; [6]) was 0.96 per 100 Days and the “Time at Risk” value (C57BL/6 mice [2]; [6]) was 627 days. The “Time to 10% death, Time” value (C57BL/6 mice [2]; [6]) was 15 days, the “Hazard ratio” value (C57BL/6 mice [2]; Group 4 ML (POx2): 25 mg/kg per os, Day −3 to 0 (6x), prophylactic, 5.8 Gy, reference group VL (POx1), 2) was 1.49 and the “Dead (irradiation related deaths)” value (C57BL/6 mice [2]; [7]) was 3. The “Irradiation related death rate, Rate (per 100 Days)” value (C57BL/6 mice [2]; [7]) was 0.44 per 100 Days, the “Time at Risk” value (C57BL/6 mice [2]; [7]) was 680 days and the “Time to 10% death, Time” value (C57BL/6 mice [2]; [7]) was 21 days. The “Hazard ratio” value (C57BL/6 mice [2]; Group 5 ML (POx1): 50 mg/kg per os SID Day −2, −1, 0, prophylactic, 5.8 Gy, reference group VL (POx1), 2) was 0.64, the “Dead (irradiation related deaths)” value (C57BL/6 mice [2]; [4]) was 3 and the “Irradiation related death rate, Rate (per 100 Days)” value (C57BL/6 mice [2]; [4]) was 0.48 per 100 Days. For the same compound, the “Time at Risk” value (C57BL/6 mice [2]; [4]) was 611 days, the “Time to 10% death, Time” value (C57BL/6 mice [2]; [4]) was 23 days and the survival (C57BL/6 mice [2]; Group 9 MH (POx1): 50 mg/kg per os SID Day 1, 2, 3, therapeutic, 6.0 Gy (LD50/30), control Group 8 56%) was 86%. The “Hazard ratio” value (C57BL/6 mice [2]; Group 9 MH (POx1): 50 mg/kg per os SID Day 1, 2, 3, therapeutic, 6.0 Gy, reference group VH (POx1), 8) was 0.32, the “severity of testes degradation compared to Group 2” value (shortened to “severity … compared to Group 2”) (C57BL/6 mice [3]; [5]) was “reduced” and the “severity … compared to Group 2” value (C57BL/6 mice [3]; [6]) was “reduced”. For the same compound, the “severity … compared to Group 2” value (C57BL/6 mice [3]; [7]) was “reduced”, the “Supporting variable: Testes degradation (trend)” value (C57BL/6 mice [3]; [6]) was “+” and the “Supporting variable: Testes degradation (trend)” value (C57BL/6 mice [3]; [7]) was “+”. For the same compound, the “Supporting variable: Testes degradation (trend)” value (C57BL/6 mice [3]; [4]) was “+”.
